From patent US20050239899A1, “Beta-secretase inhibitors” (priority 2002, published 2005)

Experiments:
[1] = tested on: cells; assay: cellular assay (activity in cells); assay type: cell-based
Text: As combined pharmacophore, for example, a combination of common pharmacophore for aspartyl proteases and a surface-based (surf2lead®) pharmacophore of the crystallized beta-secretase:OM922 complex can be used. For the common pharmacophore of the aspartyl proteases the active center was employed for generation of the pharmacophore. For the surf2lead approach the surface of the active center of the beta-secretase: OM922 complex crystallized with inhibitor was used for generation of the pharmacophore. A query for PHACIR screening was generated from a combination of the two pharmacophores. The compounds of the focused library identified by virtual screening then can be subjected to an in vitro assay, e.g. a fluorescence BACE assay, or a cellular assay in order to determine its possible inhibitory action.

[2] = molecular target: T1, rhBACE (Homo sapiens, UniProt P56817); assay: Fluorescence BACE assay; assay type: biochemical; conditions: EDANS/Dabcyl peptide substrate, pH 5, 2 hours at 37 C
T1 construct: purchased R&D systems 931-AS
T1 sequence (P56817 46-501): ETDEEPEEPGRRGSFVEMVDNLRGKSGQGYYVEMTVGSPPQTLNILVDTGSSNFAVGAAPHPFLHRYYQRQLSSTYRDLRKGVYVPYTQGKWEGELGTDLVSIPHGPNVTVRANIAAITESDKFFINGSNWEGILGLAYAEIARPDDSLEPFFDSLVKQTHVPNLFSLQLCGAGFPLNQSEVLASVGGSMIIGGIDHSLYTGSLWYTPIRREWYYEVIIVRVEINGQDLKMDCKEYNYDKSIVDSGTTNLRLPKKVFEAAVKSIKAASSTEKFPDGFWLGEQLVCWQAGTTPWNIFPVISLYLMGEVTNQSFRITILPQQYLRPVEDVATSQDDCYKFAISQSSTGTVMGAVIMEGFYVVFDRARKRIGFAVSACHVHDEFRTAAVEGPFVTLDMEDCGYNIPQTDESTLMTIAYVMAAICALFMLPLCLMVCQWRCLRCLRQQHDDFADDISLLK
Protocol: The inhibitory activity of the compounds of the invention was shown in an in vitro assay, namely a fluorescence BACE assay.
The assay was set up in triplicate wells of 96 well black plate. rhBACE was diluted to 1 unit/well in […] (PBS +0.5% Triton-X 100, pH 5). BACE enzyme (obtained from R&D systems (ca.No. 931-AS), reference: Vasser et al., 1999, Science 286, 735-741) was incubated with various concentrations of inhibitor compound (10 nM to 500 µM) for 5 min; Reaction was started by adding peptide substrate (obtained from BACHEM (cat. No. M-2470), reference: Ermolieff et al., Biochemistry 39 (2000) 12450-56) with EDANS/Dabcyl labels. After incubation for 2 hours at 37 C the results were read in fluoroplate reader at 355 nm/486 nm.

SMILES | IC50 [2] | activity in cells / cell permeability [1]
O=C(Nc1cc(-c2ccc(Cl)cc2)nn1-c1ccc(I)cc1)C1CCC1 [ID1] | 45 µM | –
O=[N+]([O-])c1cc(C(F)(F)F)cc([N+](=O)[O-])c1N/N=C/c1cc(Cl)cc(Cl)c1O [ID6] | 39.3 µM | –
Oc1c(Cl)cc(Cl)cc1/C=N/Nc1ncnc2sc3c(c12)CCCC3 [ID5] | 53 µM | –
C/C(=N\OC(=O)c1c(-c2c(Cl)cccc2Cl)noc1C)c1ccccc1O [ID4] | 140 to 170 µM | –

Molecules with a lower IC50 [2], results first:

IC50 [2] | SMILES | activity in cells / cell permeability [1]
10 µM | C=CCn1c(SCc2ccc(Cl)cc2)nc2sc3c(c2c1=N)CCCC3 [ID3] | especially cell-permeable active compounds
14.4 µM | C/C(=N\Nc1ccccc1)c1cc(Cl)cc(Cl)c1O [ID7] | especially cell-permeable active compounds
29 µM | Oc1c(Cl)cc(Cl)cc1/C=N/Nc1c(Cl)cncc1Cl [ID2] | –
